Experimental data from US11834414B2, “1-methyl-4-[(4-phenylphenyl)sulfonylmethyl]cyclohexyanol and 1-methyl-4-[[4-(2-pyridyl)phenyl]sulfonylmethyl]cyclohexanol compounds and their therapeutic use” (Modern Biosciences Limited, priority 2018, dated 2023).
In brackets after ≈: the same amount, converted by molar mass. Entries after “also recorded” stand apart in the source; their conditions may differ.

Columns and labels:
CYP2C9 = CYP2C9 (Homo sapiens (Human), UniProt P11712); assay: Human Cytochrome P450 Inhibition Assay (Bactosomes); assay type: in vitro ADME; details: recombinant Bactosomes, 10 minutes, 37° C.
CYP2C19 = CYP2C19 (Homo sapiens (Human), UniProt P33261); assay: as above; assay type: in vitro ADME; details: recombinant Bactosomes, 10 minutes, 37° C.
CYP2D6 = CYP2D6 (Homo sapiens (Human), UniProt P10635); assay: as above; assay type: in vitro ADME; details: recombinant Bactosomes, 10 minutes, 37° C.
CYP3A4 = CYP3A4 (Homo sapiens (Human), UniProt P08684); assay: as above; assay type: in vitro ADME; details: recombinant Bactosomes, 10 minutes, 37° C.
CYP1A2 = CYP1A2 (Homo sapiens (Human), UniProt P05177); details: recombinant enzyme
[1] = tested on: Thp1 human monocytic cells; assay: Thp1 Monocyte ATP Production Assay; assay type: cell-based; details: Homo sapiens, THP-1, 24 h, Thp1 cells, 24 hour incubation, ATPLite; 9-point range 10 μM to 10 nM, mean of 2 independent experiments
Method: In vitro potency of test compounds was determined by incubation with Thp1 human monocytic cells and subsequent determination of Adenosine TriPhosphate (ATP) levels using firefly luciferase.
ATP is present in all metabolically active cells. When cells lose integrity, their ability to synthesise ATP is rapidly lost. […] See, e.g., Kang et al., 2015; Jiang et al., 2013. Levels of ATP can be monitored using a system based on firefly (Photinus pyralis) luciferase (see, e.g., Auld et al., 2009) using commercially available kits. A system known as
ATPlite™ was using to measure effects of the test compounds on cellular viability in vitro. This one-step assay system is an adenosine triphosphate (ATP) monitoring system based on the production of light caused by the reaction of ATP from the cells with added luciferase and D-luciferin, as illustrated in the reaction scheme below:
The emitted light is proportional to the ATP concentration.
Thp1 cells were plated at 112500 cells per well in 125 μL RPMI-1640 (no glucose) with 1% FBS in 96-well plates. Test compounds were prepared as 100 mM solutions in DMSO. These stock solutions were diluted in DMSO and then diluted 1000× in culture medium (RPMI) before being added directly to the wells so as to give the desired final compound concentration. After a 24 hour incubation at 37° C./5% CO2, ATPLite™ (Perkin Elmer) was added to each well (1:10 v/v, 10 μL). The plate was then incubated at room temperature for 5 minutes and the emitted light was quantified on Viewlux with a measurement time of 0.3 seconds and binning 4×4.
The average results for each test compound were expressed as a percent (%) of the average control value reflecting cell viability. The average values across the concentrations tested were then plotted and the IC50 for was calculated by fitting the data to a 4-parameter IC50 equation using software from Graf it (Erithacus Software). Each experiment was repeated twice and the data are presented as the mean IC50 from both experiments.

Rat hepatocyte stability = assay type: in vitro ADME; details: rat, pooled rat hepatocytes, 60 minute incubation; for hepatocyte CLint at 1 μM: read-out: Rat Clint (μL/min/million cells); for half-life at 1 μM: read-out: Rat t1/2
Method: (§1) Metabolic stability of test compounds was measured by determination of the rate of disappearance of the compound when incubated in the presence of rat or human hepatocytes, a primary source of the most important enzymes (cytochrome P450s) involved in drug metabolism. Study of drug stability in the presence of primary hepatocytes is accepted as a valuable model permitting rapid prediction of in vivo drug stability.
(§2) Rat or human hepatocytes were obtained from a commercial source and viability was assessed using a trypan blue solution prior to use. Test compounds (final concentration 1 μM, 0.1% DMSO, 0.9% acetonitrile) or a marker (diclofenac or diltiazem, final assay concentration 1 μM, 0.1% DMSO, 0.9% acetonitrile) were incubated with pooled hepatocytes for a 60 minute period and samples removed at up to 6 time points and analysed by LC-MS/MS for the presence/amount of test compounds.
(§3) Each compound was incubated for 0, 5, 15, 30, 45, or 60 minutes. The reactions were stopped by the addition of methanol containing an internal standard (1 μM Tolbutamide) at the appropriate time points, mixed and placed at −20° C. for ≥1 hour to quench and allow protein to precipitate. All samples were centrifuged (2500×g, 20 minutes, 4° C.). The aliquots were analysed using LC-MS/MS. Reactions were performed in duplicate at 37° C.
(§4) Data were processed, and the results plotted as In(concentration) vs. time. The elimination rate constant (slope of the regression line, k) was calculated using the following formula, where C(t) is the concentration at time t and C(0) is the starting concentration:
(§5) The half-life (t1/2) was calculated using the following formula: […]
(§6) The intrinsic clearance (CIint) was calculated using the following formula, where [cell] is the hepatocyte concentration in the assay: […]

[2] = Human hepatocyte stability; assay type: in vitro ADME; details: human, pooled human hepatocytes, human hepatocytes, 1 μM, 60 minute incubation; for hepatocyte CLint at 1 μM: read-out: Human Clint (uL/min/million cells); for half-life at 1 μM: read-out: Human t1/2
Method: as §1, §2, §3, §4, §5, §6

[3] = Metabolite identification in rats; assay type: in vivo, Han Wistar rats; details: rat, 1 mg/kg intravenous
Method: The formation of metabolites in rats was assessed to determine the propensity of the compounds to form a biaryl metabolite.
The corresponding sulfonamide compounds (for example, reference compound HMC-C-01-A) give rise to a sulphonamide metabolite which is persistent and has a long half-life. In addition, the biaryl sulphonamide metabolite acts as an inducer of metabolism in rats, which may complicate the assessment of toxicity in rodents. Therefore, the lower the propensity to form a biaryl sulphonamide metabolite, the greater the potential suitability of the compound for development for human use.
Plasma samples from Han Wistar rats, aged 8-12 weeks, were collected from animals dosed with test compound. Test compounds at a dose of 1 mg/kg were administered intravenously as a solution in 5% NMP, 5% Solutol HS, and 90% normal saline. Animals were given free access to food throughout the study. Blood samples were taken under light isoflurane anaesthesia at 12 time points following an intravenous dose (0.033, 0.1, 0.167, 0.25, 0.5, 1, 2, 4, 6, 8, 12, and 24 hours). The blood samples were collected from a set of three rats at each time point in labelled micro centrifuge tube containing K2EDTA as anticoagulant. Plasma samples were separated by centrifugation of whole blood.
All samples were processed for analysis by protein precipitation using acetonitrile and analysed with a fit-for-purpose LC-MS/MS method.
At the completion of the study, the results were expressed as detection of the metabolite and time course of formation.

[4] = Aqueous solubility in FaSSIF; assay type: physicochemical; details: kinetic from dmso stock, pH 6.5, three replicates
Method: Aqueous solubility was measured by equilibration of compounds with fasted state simulated intestinal fluid (FaSSIF) and quantified spectrophotometrically.
Preparation of blank FaSSIF: 0.21 g of sodium hydroxide (NaOH) pellets, 1.97 g of dihydrogen sodium phosphate (NaH2PO4.2H2O) and 3.09 g of sodium chloride (NaCl) were dissolved in 400 mL of deionised water. The pH was adjusted to 6.5 using 1 M hydrochloric acid and further deionised water added to a final volume of 500 mL.
Preparation of FaSSIF: 0.056 g of SIF Powder (containing sodium taurocholate and lecithin) (Phares AG) was dissolved in 25 mL of blank FaSSIF and stirred until the powder was completely dissolved. The solution was allowed to stand for 2 hours during which it became opalescent; it was used within 24 hours. The final solution composition was characterised as follows: • Sodium taurocholate: 3 mM • Lecithin: 0.75 mM • Osmolarity: 270±10 mOsmol • pH: 6.5
The optical density was measured at the end of the incubation period for test compounds and a reference used to determine solubility. In brief, two samples were prepared for each determination: a reference sample consisting of a stock solution of test compound in DMSO diluted in system solution (a phosphate free, low absorption buffer) and propanol; and a test sample (prepared in triplicate) consisting of 0.5 mL FaSSIF spiked with test compound at 0.2 mM. Each sample was incubated at room temperature for 16 hours with constant shaking at 250 rpm. At the end of the incubation period, 0.3 mL of each sample was filtered through a pION filter plate (PION, Woburn MA), diluted 1:1 with propanol and scanned using UV spectrophotometry at λmax ([…]) using a Spectra Max Plus—Version 2.1000 (Molecular Devices, Sunnyvale, CA), with pSOL Explorer solubility determination software (pION, Woburn, MA).
FaSSIF solubility was calculated using the following formula:
[formula] • wherein: • “OD” is the optical density; • “Cr” is the concentration of the reference (33.4 μM); and • “molecular weight” is for the test compound (e.g., 381.44 for ABD735).

human hepatocytes = assay: Human hepatocyte stability; assay type: in vitro ADME; details: hepatocyte stability, compared to the reference compounds
Method: as §1, §2, §3, §4, §5, §6

CYP2C9, sequence (P11712 whole entry): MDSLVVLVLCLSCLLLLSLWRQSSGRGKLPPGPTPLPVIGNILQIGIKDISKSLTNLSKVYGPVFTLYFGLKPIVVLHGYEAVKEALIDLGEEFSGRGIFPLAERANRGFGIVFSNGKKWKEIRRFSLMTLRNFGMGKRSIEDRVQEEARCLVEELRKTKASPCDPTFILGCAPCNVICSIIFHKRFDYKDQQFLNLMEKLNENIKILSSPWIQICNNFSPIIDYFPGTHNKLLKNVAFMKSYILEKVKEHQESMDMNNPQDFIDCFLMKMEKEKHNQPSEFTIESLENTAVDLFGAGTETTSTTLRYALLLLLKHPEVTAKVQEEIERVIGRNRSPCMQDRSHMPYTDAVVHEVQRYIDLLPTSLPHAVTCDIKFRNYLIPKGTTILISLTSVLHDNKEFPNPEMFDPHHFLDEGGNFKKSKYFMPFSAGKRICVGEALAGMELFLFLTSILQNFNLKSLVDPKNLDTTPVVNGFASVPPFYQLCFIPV
CYP1A2, sequence (P05177 whole entry): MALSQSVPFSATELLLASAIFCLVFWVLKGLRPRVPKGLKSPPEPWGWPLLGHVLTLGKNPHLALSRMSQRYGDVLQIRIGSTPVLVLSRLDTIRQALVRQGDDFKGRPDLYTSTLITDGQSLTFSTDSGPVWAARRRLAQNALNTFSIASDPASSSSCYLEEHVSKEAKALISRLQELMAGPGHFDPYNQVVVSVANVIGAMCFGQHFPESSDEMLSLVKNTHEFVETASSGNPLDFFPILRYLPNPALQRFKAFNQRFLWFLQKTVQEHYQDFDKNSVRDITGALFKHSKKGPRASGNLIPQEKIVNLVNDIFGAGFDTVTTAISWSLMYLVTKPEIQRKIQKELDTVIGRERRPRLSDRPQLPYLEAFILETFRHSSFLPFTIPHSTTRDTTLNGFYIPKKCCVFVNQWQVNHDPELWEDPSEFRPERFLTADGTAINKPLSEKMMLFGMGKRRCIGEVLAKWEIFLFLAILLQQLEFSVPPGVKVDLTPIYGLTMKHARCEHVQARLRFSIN
CYP2D6, sequence (P10635 whole entry): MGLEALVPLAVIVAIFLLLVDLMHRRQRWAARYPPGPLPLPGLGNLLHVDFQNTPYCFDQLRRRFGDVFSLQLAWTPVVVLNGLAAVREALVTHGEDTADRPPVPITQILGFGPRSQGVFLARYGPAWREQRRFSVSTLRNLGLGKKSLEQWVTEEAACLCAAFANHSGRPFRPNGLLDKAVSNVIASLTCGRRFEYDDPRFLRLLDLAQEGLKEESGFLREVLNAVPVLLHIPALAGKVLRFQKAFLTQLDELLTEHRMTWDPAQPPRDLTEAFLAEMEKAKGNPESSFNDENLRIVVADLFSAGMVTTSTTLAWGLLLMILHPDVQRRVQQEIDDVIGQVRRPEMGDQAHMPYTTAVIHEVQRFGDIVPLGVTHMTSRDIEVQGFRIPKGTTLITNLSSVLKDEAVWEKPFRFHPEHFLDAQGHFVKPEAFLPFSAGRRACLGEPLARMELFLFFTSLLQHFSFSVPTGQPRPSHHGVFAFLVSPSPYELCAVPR
CYP2C19, sequence (P33261 whole entry): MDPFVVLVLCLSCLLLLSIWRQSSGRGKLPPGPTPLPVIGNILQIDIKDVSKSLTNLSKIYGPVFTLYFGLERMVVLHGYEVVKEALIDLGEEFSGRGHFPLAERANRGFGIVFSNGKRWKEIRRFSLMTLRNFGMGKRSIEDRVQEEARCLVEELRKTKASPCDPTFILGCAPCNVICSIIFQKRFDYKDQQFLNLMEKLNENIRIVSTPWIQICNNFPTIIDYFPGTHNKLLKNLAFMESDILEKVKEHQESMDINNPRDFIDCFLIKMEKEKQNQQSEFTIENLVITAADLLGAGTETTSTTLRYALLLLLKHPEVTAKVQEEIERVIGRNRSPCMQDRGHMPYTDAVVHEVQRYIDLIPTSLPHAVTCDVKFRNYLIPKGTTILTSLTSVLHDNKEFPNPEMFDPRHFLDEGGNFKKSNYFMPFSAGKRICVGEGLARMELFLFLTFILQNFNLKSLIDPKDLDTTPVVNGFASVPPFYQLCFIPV
CYP3A4, sequence (P08684 whole entry): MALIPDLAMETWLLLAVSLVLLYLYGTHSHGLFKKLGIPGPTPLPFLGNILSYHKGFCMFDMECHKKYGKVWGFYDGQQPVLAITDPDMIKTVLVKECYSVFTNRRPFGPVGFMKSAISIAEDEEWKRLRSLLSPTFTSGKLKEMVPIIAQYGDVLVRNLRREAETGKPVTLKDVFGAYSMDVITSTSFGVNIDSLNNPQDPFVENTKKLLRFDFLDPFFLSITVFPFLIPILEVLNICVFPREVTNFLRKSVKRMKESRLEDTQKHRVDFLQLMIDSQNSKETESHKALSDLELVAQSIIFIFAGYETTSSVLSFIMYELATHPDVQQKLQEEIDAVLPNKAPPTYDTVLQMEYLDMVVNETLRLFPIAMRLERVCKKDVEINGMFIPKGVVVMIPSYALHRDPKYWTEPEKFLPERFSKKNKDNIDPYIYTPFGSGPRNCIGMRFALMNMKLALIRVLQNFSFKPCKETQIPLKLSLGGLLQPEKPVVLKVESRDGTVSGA

Row | SMILES | IC50 (CYP2C9) | IC50 (CYP2C19) | IC50 (CYP2D6) | IC50 (CYP3A4) | IC50 (CYP1A2) | IC50 [1] | hepatocyte CLint at 1 μM (Rat hepatocyte stability) | half-life at 1 μM (Rat hepatocyte stability) | hepatocyte CLint at 1 μM [2] | half-life at 1 μM [2] | time after administration at which metabolite MET-002 was detected [3] | solubility at 16 h [4] | metabolic stability (in words) (human hepatocytes) | formation of biaryl sulphonamide metabolite (MET-001) in plasma ([3]; up to 24 hours) | formation of biaryl sulphonic acid metabolite (MET-002) in plasma ([3]; up to 24 hours)
1 | C[C@]1(O)CC[C@H](CS(=O)(=O)c2ccc(-c3ccc(Cl)cc3C#N)cc2)CC1 [CHMSA-10-B, 4-Chloro-4′-((trans-4-hydroxy-4-methylcyclohexyl)methanesulfonyl)-(1,1′-biphenyl)-2-carbonitrile] |  |  |  |  |  | 1.96 µM | 336 µL/min/1e6 cells | 4.8 min | 5.8 µL/min/1e6 cells | 195 min | 0.5 h |  |  | did not produce any biaryl sulphonamide metabolite | detected only transiently; also recorded: only transiently detected
2 | C[C@]1(O)CC[C@H](CS(=O)(=O)c2ccc(-c3ccc(F)cc3F)cc2)CC1 [CHMSA-04-B, trans-4-(((2′,4′-difluoro-(1,1′-biphenyl)-4-yl)sulfonyl)methyl)-1-methylcyclohexan-1-ol] |  |  |  |  |  | 2.4 µM | 51.3 µL/min/1e6 cells | 31.4 min | < 3 µL/min/1e6 cells | > 460 min |  | 40 µg/mL (≈ 105 µM) |  |  | 
3 | C[C@]1(O)CC[C@@H](CS(=O)(=O)c2ccc(-c3ccc(F)cc3F)cc2)CC1 [CHMSA-04-A, cis-4-(((2′,4′-Difluoro-(1,1′-biphenyl)-4-yl)sulfonyl)methyl)-1-methylcyclohexan-1-ol] |  |  |  |  |  | 0.98 µM | 37.4 µL/min/1e6 cells | 47.1 min | 40.6 µL/min/1e6 cells | 27.5 min |  | > 70 µg/mL |  |  | 
4 | C[C@]1(O)CC[C@H](CS(=O)(=O)c2ccc(-c3ncc(F)cc3F)c(F)c2)CC1 [CHMSA-03-B, trans-4-(((4-(3,5-Difluoropyridin-2-yl)-3-fluorophenyl)sulfonyl)methyl)-1-methylcyclohexan-1-ol] |  |  |  |  |  | 5.4 µM |  |  | < 3 µL/min/1e6 cells | > 460 min |  |  | exceptionally good stability |  | 

Now from value to compound, other results behind:

Row | IC50 (CYP2C9) | IC50 (CYP2C19) | IC50 (CYP2D6) | IC50 (CYP3A4) | IC50 (CYP1A2) | IC50 [1] | hepatocyte CLint at 1 μM (Rat hepatocyte stability) | half-life at 1 μM (Rat hepatocyte stability) | hepatocyte CLint at 1 μM [2] | half-life at 1 μM [2] | time after administration at which metabolite MET-002 was detected [3] | solubility at 16 h [4] | metabolic stability (in words) (human hepatocytes) | SMILES | formation of biaryl sulphonamide metabolite (MET-001) in plasma ([3]; up to 24 hours) | formation of biaryl sulphonic acid metabolite (MET-002) in plasma ([3]; up to 24 hours)
5 | 34 µM | > 50 µM | > 50 µM | 33 µM | 23 µM |  |  |  |  |  |  |  |  | CC1(O)CCC(NS(=O)(=O)c2ccc(-c3ccc(C#N)cc3Cl)cc2)CC1 (stereo not drawn) [HMC-C-09-A, reference compound] |  | 
6 | 27 µM | > 50 µM | > 50 µM | > 50 µM | 36 µM |  |  |  |  |  |  |  |  | CC1(O)CCC(NS(=O)(=O)c2ccc(-c3ncc(Cl)cc3C#N)cc2)CC1 (stereo not drawn) [HMC-N-05-A, reference compound] |  | 
7 | 2.7 µM | 5.1 µM | 9.3 µM | 12 µM | 11 µM |  |  |  |  |  |  |  |  | CC1(O)CCC(NS(=O)(=O)c2ccc(-c3ccc(Cl)cc3C#N)c(Cl)c2)CC1 (stereo not drawn) [HMC-C-11-A, reference compound] |  | 
8 | 2.4 µM | 8.5 µM | > 16 µM | 9.2 µM | > 16 µM |  |  |  |  |  |  |  |  | CC1(O)CCC(NS(=O)(=O)c2ccc(-c3cc(F)c(F)cc3F)cc2)CC1 (stereo not drawn) [HMC-C-10-B, reference compound] |  | 
9 |  |  |  |  |  | 3.2 µM |  |  | < 3.1 µL/min/1e6 cells | > 442 min |  |  | exceptionally good stability | C[C@]1(O)CC[C@H](CS(=O)(=O)c2ccc(-c3ccc(C#N)cc3)c(F)c2)CC1 [CHMSA-12-B, 2′-Fluoro-4′-(((trans-4-hydroxy-4-methylcyclohexyl)methyl)sulfonyl)-[1,1′-biphenyl]-4-carbonitrile] |  | 
